Experimental data as given in US20240239790A1, “7-Morpholino-1,6-Naphthyridin-5-yl Derivatives and Pharmaceutical Compositions Thereof Useful as DNA-PK Inhibitor” (adMare Therapeutics Society, priority 2021, published 2024).
Read-outs that look alike come from different tables or passages of the source. Each block holds one compound with its values, some of them ahead of it.

What was measured:
[1] = Pharmacokinetic study in male Beagle dogs (IV and PO), plasma; format: in vivo, dog; conditions: for AUC—% Extrap—obs / Cl_obs / Vz_obs / AUC(0-t) / half-life / AUC(0-inf) / Cmax: dog plasma; for F: dog; for AUC(0-t) / half-life / AUC(0-inf) / Cmax: male, Beagle; for AUC(0-inf): read-out: AUCINF—obs; for Cmax: read-out: Cmax (5 min)
Method: Pharmacokinetic studies were conducted to estimate plasma concentrations obtained after oral gavage (PO) and intravenous (IV) single administration of compounds administered to separate groups of male Beagle dogs. Three (3) dogs were administered a compound via the intravenous (IV) route at 3 mg/kg and 2.5 mL/kg, and plasma was collected at 12 timepoints over a 24-hour period. Following a 7 days washout period, the same dogs were administered the same compound via PO at 10 mg/kg and 5 mL/kg, and plasma was collected at 12 timepoints over a 48-hour period.
(§1) The in-vivo study plasma samples were analyzed using Ultra Performance Liquid Chromatography (UPLC) with tandem mass spectrometry (MS/MS) detection in multiple reaction monitoring (MRM) mode. A generic bioanalytical method involving plasma sample extraction and cleanup by protein precipitation with acetonitrile was used followed by UPLC-MS/MS analysis.
(§2) A brief example of a generic bioanalytical UPLC-MS/MS method used for analysis of compounds in the in-vivo study plasma samples is as follows. Plasma samples were spiked with internal standard prior to extraction and cleanup by protein precipitation with ice cold acetonitrile containing 0.1% (v/v) ammonium hydroxide at a ratio of 3:1 (solvent:plasma) and centrifuged at 18213 rcf for 15 minutes at 4° C. to pellet precipitates. Aliquots of supernatants were transferred to a 96-well plate and evaporated to dryness at 40° C. under a stream of nitrogen gas. Samples were reconstituted in 50:50 acetonitrile/10 mM ammonium acetate buffer pH 8, mixed thoroughly and analyzed using Ultra Performance Liquid Chromatography (UPLC) with tandem mass spectrometry (MS/MS) detection in multiple reaction monitoring (MRM) mode. Matrix-matched calibration standards and quality control (QC) samples were prepared in naïve C57Bl/6 mouse plasma. The UPLC column used was Waters Acquity UPLC BEH C18 1.7 um, 2.1 mm×50 mm (with guard column). The UPLC mobile phase consisted of: Mobile phase A: 10 mM ammonium acetate in Water pH 8, and Mobile phase B: Acetonitrile. Separation was accomplished with a linear gradient of 5% mobile phase B to 95% mobile phase B in 2 min, and a flow rate of 0.35 mL/min. The MS/MS data acquisition was accomplished using 3 MRM Transitions in ESI+ mode. Parent ion mass 508.37 m/z-to-Daughter ions (m/z) 117.05, 232.13 and 270.22. The quantitation of concentrations in test samples was achieved by matrix-matched calibration with normalization using an internal standard. Data acquisition and analysis were performed using Waters MassLynx software with TargetLynx application manager.
(§3) Estimation of PK parameters was performed using independent noncompartmental model method by PHOENIX WinNonlin software.

[2] = Pharmacokinetic study in male Sprague-Dawley rats (IV and PO), plasma; format: in vivo, rat; conditions: for AUC(0-t) / Cmax at 5 min / half-life / AUC(0-inf): male, Sprague-Dawley; for AUC(0-t) / Cmax at 5 min / half-life / AUC(0-inf) / AUC—% Extrap—obs / Cl_obs / Vz_obs: rat plasma; for AUC(0-inf): read-out: AUCINF—obs; for F: rat
Method: Pharmacokinetic studies were conducted to estimate plasma concentrations obtained after oral gavage (PO) and intravenous (IV) single administration of compounds administered to male Sprague-Dawley rats. Six (6) rats were administered for each compound, route and dose, and plasma was collected at 12 timepoints over a 24 hr period for IV, and 12 timepoints over a 48 hr period for PO. Note that plasma was collected from only 3 animals per timepoint (n=3 for timepoints up to 10 hours, and n=3 for timepoints from 16 h to end of study). Dosing volumes were 5 mL/kg for IV and 10 mL/kg for PO gavage. IV compounds for administration were in solutions, whereas PO compounds were in solution or suspension.
as §1, §2, §3

AUC—% Extrap—obs ([1]; IV, 3 mg/kg): 23.94% | Cl_obs ([1]; IV, 3 mg/kg): 32.4562 mL/min/kg | Vz_obs ([1]; IV, 3 mg/kg): 37.41197 L/kg | AUC—% Extrap—obs ([1]; PO, 10 mg/kg): 9.05% | Cl_obs ([1]; PO, 10 mg/kg): 27.6643 mL/min/kg | Vz_obs ([1]; PO, 10 mg/kg): 32.69379 L/kg | F ([1]; PO, 10 mg/kg): 143% | AUC(0-t) ([1]; IV, 3 mg/kg): 1180 ng·h/mL | half-life ([1]; IV, 3 mg/kg): 13.3 h | AUC(0-inf) ([1]; IV, 3 mg/kg): 1560 ng·h/mL | Cmax ([1]; IV, 3 mg/kg): 397 ng/mL | AUC(0-t) ([1]; PO, 10 mg/kg): 5640 ng·h/mL | half-life ([1]; PO, 10 mg/kg): 13.8 h | AUC(0-inf) ([1]; PO, 10 mg/kg): 6220 ng·h/mL | Cmax ([1]; PO, 10 mg/kg): 291 ng/mL | AUC(0-t) ([2]; IV, 3 mg/kg): 488 ng·h/mL | Cmax at 5 min ([2]; IV, 3 mg/kg): 183 ng/mL | half-life ([2]; IV, 3 mg/kg): 4.82 h | AUC(0-inf) ([2]; IV, 3 mg/kg): 501 ng·h/mL | AUC(0-t) ([2]; PO, 3 mg/kg): 305 ng·h/mL | Cmax at 5 min ([2]; PO, 3 mg/kg): 27.2 ng/mL | half-life ([2]; PO, 3 mg/kg): 2.81 h | AUC(0-inf) ([2]; PO, 3 mg/kg): 308 ng·h/mL | AUC(0-t) ([2]; PO, 10 mg/kg): 1550 ng·h/mL | Cmax at 5 min ([2]; PO, 10 mg/kg): 140 ng/mL | half-life ([2]; PO, 10 mg/kg): 3.23 h | AUC(0-inf) ([2]; PO, 10 mg/kg): 1570 ng·h/mL | AUC(0-t) ([2]; PO, 30 mg/kg): 5870 ng·h/mL | Cmax at 5 min ([2]; PO, 30 mg/kg): 482 ng/mL | half-life ([2]; PO, 30 mg/kg): 6.47 h | AUC(0-inf) ([2]; PO, 30 mg/kg): 5890 ng·h/mL | AUC—% Extrap—obs ([2]; IV, 3 mg/kg): 2.61% | Cl_obs ([2]; IV, 3 mg/kg): 99.8872 mL/min/kg | Vz_obs ([2]; IV, 3 mg/kg): 41.64841 L/kg | AUC—% Extrap—obs ([2]; PO, 3 mg/kg): 1.07% | Cl_obs ([2]; PO, 3 mg/kg): 162.417 mL/min/kg | Vz_obs ([2]; PO, 3 mg/kg): 39.5678 L/kg | AUC—% Extrap—obs ([2]; PO, 10 mg/kg): 1.16% | Cl_obs ([2]; PO, 10 mg/kg): 106.252 mL/min/kg | Vz_obs ([2]; PO, 10 mg/kg): 29.72118 L/kg | AUC—% Extrap—obs ([2]; PO, 30 mg/kg): 0.37% | Cl_obs ([2]; PO, 30 mg/kg): 84.9088 mL/min/kg | Vz_obs ([2]; PO, 30 mg/kg): 47.52784 L/kg | F ([2]; PO, 3 mg/kg): 62% | F ([2]; PO, 10 mg/kg): 95% | F ([2]; PO, 30 mg/kg): 120%
Compound: CN1CCN(CCOc2cnc(N[C@H]3CC[C@@H](Oc4nc(N5CCOCC5)cc5ncccc45)CC3)nc2)CC1 [Compound 69, 5-(2-(4-Methylpiperazin-1-yl)ethoxy)-N-((1s,4s)-4-((7-morpholino-1,6-naphthyridin-5-yl)oxy)cyclohexyl)pyrimidin-2-amine]

AUC—% Extrap—obs ([1]; IV, 3 mg/kg): 5.80% | Cl_obs ([1]; IV, 3 mg/kg): 28.2873 mL/min/kg | Vz_obs ([1]; IV, 3 mg/kg): 28.9956 L/kg | AUC—% Extrap—obs ([1]; PO, 10 mg/kg): 0.51% | Cl_obs ([1]; PO, 10 mg/kg): 28.6397 mL/min/kg | Vz_obs ([1]; PO, 10 mg/kg): 6.54871 L/kg | F ([1]; PO, 10 mg/kg): 105% | AUC(0-t) ([1]; IV, 3 mg/kg): 1730 ng·h/mL | half-life ([1]; IV, 3 mg/kg): 13.1 h | AUC(0-inf) ([1]; IV, 3 mg/kg): 1850 ng·h/mL | Cmax ([1]; IV, 3 mg/kg): 1730 ng/mL | AUC(0-t) ([1]; PO, 10 mg/kg): 6090 ng·h/mL | half-life ([1]; PO, 10 mg/kg): 2.62 h | AUC(0-inf) ([1]; PO, 10 mg/kg): 6130 ng·h/mL | Cmax ([1]; PO, 10 mg/kg): 1540 ng/mL | AUC(0-t) ([2]; IV, 3 mg/kg): 371 ng·h/mL | Cmax at 5 min ([2]; IV, 3 mg/kg): 886 ng/mL | half-life ([2]; IV, 3 mg/kg): 0.67 h | AUC(0-inf) ([2]; IV, 3 mg/kg): 374 ng·h/mL | AUC(0-t) ([2]; PO, 3 mg/kg): 71.6 ng·h/mL | Cmax at 5 min ([2]; PO, 3 mg/kg): 28.2 ng/mL | half-life ([2]; PO, 3 mg/kg): 2.59 h | AUC(0-inf) ([2]; PO, 3 mg/kg): 78.4 ng·h/mL | AUC(0-t) ([2]; PO, 10 mg/kg): 1290 ng·h/mL | Cmax at 5 min ([2]; PO, 10 mg/kg): 203 ng/mL | half-life ([2]; PO, 10 mg/kg): 2.39 h | AUC(0-inf) ([2]; PO, 10 mg/kg): 1490 ng·h/mL | AUC(0-t) ([2]; PO, 30 mg/kg): 14100 ng·h/mL | Cmax at 5 min ([2]; PO, 30 mg/kg): 1600 ng/mL | half-life ([2]; PO, 30 mg/kg): 1.26 h | AUC(0-inf) ([2]; PO, 30 mg/kg): 14100 ng·h/mL | AUC—% Extrap—obs ([2]; IV, 3 mg/kg): 0.91% | Cl_obs ([2]; IV, 3 mg/kg): 133.623 mL/min/kg | Vz_obs ([2]; IV, 3 mg/kg): 7.72522 L/kg | AUC—% Extrap—obs ([2]; PO, 3 mg/kg): 8.66% | Cl_obs ([2]; PO, 3 mg/kg): 637.8442 mL/min/kg | Vz_obs ([2]; PO, 3 mg/kg): 142.79445 L/kg | AUC—% Extrap—obs ([2]; PO, 10 mg/kg): 13.08% | Cl_obs ([2]; PO, 10 mg/kg): 111.962 mL/min/kg | Vz_obs ([2]; PO, 10 mg/kg): 23.13291 L/kg | AUC—% Extrap—obs ([2]; PO, 30 mg/kg): 0.0% | Cl_obs ([2]; PO, 30 mg/kg): 35.5335 mL/min/kg | Vz_obs ([2]; PO, 30 mg/kg): 3.87755 L/kg | F ([2]; PO, 3 mg/kg): 19% | F ([2]; PO, 10 mg/kg): 105% | F ([2]; PO, 30 mg/kg): 379%
Compound: CN(C)C(=O)Cn1ccc2nc(N[C@H]3CC[C@@H](Oc4nc(N5CCOCC5)cc5ncccc45)CC3)ncc21 [Compound 86, N,N-Dimethyl-2-(2-(((1s,4s)-4-((7-morpholino-1,6-naphthyridin-5-yl)oxy)cyclohexyl)amino)-5H-pyrrolo[3,2-d]pyrimidin-5-yl)acetamide]
